Active and inactive are the calls of the source.
How the values were obtained:
[1] = target: T1, Tyrosine-protein phosphatase non-receptor type 7 (Homo sapiens, UniProt P35236); assay: redox-dependent HePTP inhibition, mechanism study, biochemical, fluorescence (AID 2068); format: functional
T1 sequence (P35236 whole entry): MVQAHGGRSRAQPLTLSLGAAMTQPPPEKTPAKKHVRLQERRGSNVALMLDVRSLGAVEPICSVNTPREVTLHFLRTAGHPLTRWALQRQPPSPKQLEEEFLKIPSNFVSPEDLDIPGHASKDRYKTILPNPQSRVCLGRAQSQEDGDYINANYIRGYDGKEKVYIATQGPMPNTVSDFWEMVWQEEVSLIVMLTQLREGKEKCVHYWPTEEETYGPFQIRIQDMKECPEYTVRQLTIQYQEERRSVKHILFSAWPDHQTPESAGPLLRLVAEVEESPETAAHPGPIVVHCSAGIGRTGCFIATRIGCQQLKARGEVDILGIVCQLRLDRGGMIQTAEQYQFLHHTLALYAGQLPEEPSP

X-box-binding protein 1 = X-box-binding protein 1 (Homo sapiens, UniProt P17861); format: functional, Cricetulus griseus;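 note: confirmatory dose-response counter-screen serving a CHOP assay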
[2] = target: DNA damage-inducible transcript 3 protein (Mus musculus, UniProt P35639); format: functional, Cricetulus griseus
[3] = target: T2, Microphthalmia-associated transcription factor (Homo sapiens, UniProt O75030); assay: TRPM1 promoter luciferase signal decrease, dose response, MITF inhibitor project, cell-based, SK-MEL-5, cherry-picked, set 4 (AID 493102); format: functional
T2 sequence (O75030 whole entry): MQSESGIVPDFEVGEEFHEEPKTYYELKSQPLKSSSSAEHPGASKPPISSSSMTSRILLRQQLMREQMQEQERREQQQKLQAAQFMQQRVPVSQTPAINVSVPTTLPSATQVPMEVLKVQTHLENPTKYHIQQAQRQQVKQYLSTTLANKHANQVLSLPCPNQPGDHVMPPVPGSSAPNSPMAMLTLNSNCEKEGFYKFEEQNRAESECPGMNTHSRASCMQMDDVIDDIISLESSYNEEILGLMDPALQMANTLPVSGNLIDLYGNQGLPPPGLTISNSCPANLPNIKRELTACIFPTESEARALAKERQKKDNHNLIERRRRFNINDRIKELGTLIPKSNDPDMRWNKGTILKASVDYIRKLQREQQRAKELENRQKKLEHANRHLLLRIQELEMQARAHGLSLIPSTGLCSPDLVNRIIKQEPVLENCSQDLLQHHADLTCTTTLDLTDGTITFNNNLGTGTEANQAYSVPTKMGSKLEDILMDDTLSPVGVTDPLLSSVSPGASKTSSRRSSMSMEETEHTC

[4] = target: T2, Microphthalmia-associated transcription factor; assay: MITF Measured in Cell-Based System Using Plate Reader - 2084-01_Inhibitor_DoseNoFile_CherryPick_Activity_Set2. [Related pubchem assays (depositor defined):AID488944]; format: functional
[5] = target: T2, Microphthalmia-associated transcription factor; assay: TRPM1 promoter luciferase signal decrease, dose response, MITF inhibitor project, cell-based, SK-MEL-5, cherry-picked, set 3 (AID 493073); format: functional
BJ [6] = assay: cells; format: functional, cell-based; details: Homo sapiens
[7] = THP-1 cell cytotoxicity, dose response, cytotoxicity control for non-replicating M. tuberculosis project (AID 489025); format: functional
[8] = growth suppression of PTEN-null colon cells, dose response, cell-based, HCT116 PTEN knockout (AID 1047); format: functional;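 note: HCT116 colon tumor cells with PTEN knocked out; cells exposed to compound for 60 hours before readout; potency for loss of cell viability measured by luminescence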
[9] = target: Nucleotide-binding oligomerization domain-containing protein 2 (Homo sapiens, UniProt Q9HC29); assay: NOD2 signaling inhibitors, cell-based, luminescence, uHTS, HEK293 (AID 1566); format: functional
cells = format: functional
BJ [10] = assay: cytotoxicity toward BJ-TERT fibroblasts, dose response, cell-based, RAS-independent, luminescence (AID 1933); format: functional; details: Homo sapiens
[11] = cytotoxicity toward NIH3T3 fibroblasts, dose response, counter-screen, cell-based, ATP luminescence, mouse fibroblasts (AID 2010); format: functional;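 note: cells exposed to compound for about 90 hours before reading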
[12] = Shn3 3'UTR reporter inhibitors, dose response, cell-based, Clone20 osteoblasts, firefly luciferase, cherry-picked (AID 624132); format: functional;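 note: firefly luciferase luminescence from reporter carrying the Shn3 3'UTR in osteoblasts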
HEK293 [13] = assay: NOD2 signaling inhibitors in MDP-stimulated cells, cell-based, uHTS, luminescence (AID 2001); format: functional; details: Homo sapiens
[14] = inhibitors of intracellular T. cruzi replication, confirmation, NIH3T3 host cells, beta-gal luminescence (AID 2044); format: functional, cell-based;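 note: intracellular parasites grown in NIH/3T3 mouse fibroblasts as host cells; luminescent beta-galactosidase reporter signal from transgenic T. cruzi replicating inside host cells; inhibitors lower the luminescence signal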
[15] = HepG2 cell cytotoxicity, dose response, cytotoxicity control for non-replicating M. tuberculosis project (AID 489018); format: functional; details: Mycobacterium tuberculosis
[16] = cytotoxicity toward DRD oncogenic fibroblasts, dose response, cell-based, non-viral oncogenic, luminescence (AID 1934); format: functional; details: Homo sapiens
[17] = HepG2 cell cytotoxicity, dose response, cytotoxicity control for Shn3 inhibitor project, CellTiter-Glo, cherry-picked (AID 624134); format: functional, cell-based
HEK293 [18] = assay: cells; format: functional, cell-based; details: Homo sapiens
INS1 = assay: beta cell apoptosis inhibitors, cytokine rescue, dose response, luminescence, retest (AID 449756); format: functional, cell-based; details: Rattus norvegicus;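 note: cell death triggered by IL-1 beta plus TNF-alpha plus IFN-gamma mixture; protective hits raise ATP signal compared with cytokine alone wells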
BJ [19] = assay: cytotoxicity toward BJ-TERT-LT-ST fibroblasts, dose response, cell-based, RAS-independent, luminescence (AID 1935); format: functional; details: Homo sapiens;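 note: BJ fibroblasts immortalized with TERT plus LT and ST oncogenes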
[20] = target: FAD-linked sulfhydryl oxidase ALR (Homo sapiens, UniProt P55789); assay: inhibitors of human ALR sulfhydryl oxidase, dose response, biochemical, H2O2 detection, luminescence, cherry-pick (AID 493248)
HEK293 [21] = assay: cells; format: functional, cell-based; details: Homo sapiens; remark: listed apart in the source
[22] = growth suppression of beta-catenin-knockout colon cells, dose response, cell-based, HCT116, human colon tumor (AID 1045); format: functional;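 note: HCT116 colon tumor cells with beta catenin knocked out; cells exposed to compound for 60 hours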
[23] = Vero E6 cell cytotoxicity, dose response, cytotoxicity control for non-replicating M. tuberculosis project, secondary assay (AID 492998); format: functional, VeroE6; details: Vero C1008
[24] = control 3'UTR Renilla luciferase suppression, dose response, counter-screen for Shn3 inhibitor project, cell-based, Clone20-Shn3RL, cherry-picked (AID 624133); format: functional
HEK293 [25] = assay: cells; format: functional, cell-based; details: Homo sapiens; remark: listed apart in the source
HEK293 [26] = assay: NOD1 signaling inhibitors, primary screen, cell-based, luminescence, uHTS (AID 1578); format: functional; details: Homo sapiens
[27] = target: Heat shock protein HSP 90-alpha (Homo sapiens, UniProt P07900); format: functional, organism-based
[28] = target: T3, Alkaline phosphatase, tissue-nonspecific isozyme (Homo sapiens, UniProt P05186); assay: human TNAP enzyme inhibitors, SAR follow-up, biochemical, luminescent, dose response (AID 1056)
T3 sequence (P05186 whole entry): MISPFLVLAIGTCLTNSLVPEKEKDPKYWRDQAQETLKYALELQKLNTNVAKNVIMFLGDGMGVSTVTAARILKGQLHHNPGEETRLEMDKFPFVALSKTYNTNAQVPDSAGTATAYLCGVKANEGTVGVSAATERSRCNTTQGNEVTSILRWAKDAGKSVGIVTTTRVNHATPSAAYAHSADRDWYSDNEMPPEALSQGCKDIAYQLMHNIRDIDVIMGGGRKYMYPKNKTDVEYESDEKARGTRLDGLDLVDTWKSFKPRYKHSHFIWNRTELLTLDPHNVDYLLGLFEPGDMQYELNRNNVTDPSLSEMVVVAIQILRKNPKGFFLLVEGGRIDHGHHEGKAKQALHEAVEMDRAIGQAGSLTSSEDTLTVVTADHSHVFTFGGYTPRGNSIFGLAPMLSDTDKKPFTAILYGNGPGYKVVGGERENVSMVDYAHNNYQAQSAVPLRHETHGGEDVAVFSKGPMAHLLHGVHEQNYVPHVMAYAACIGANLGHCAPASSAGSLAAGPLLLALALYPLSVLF

[29] = target: Glyceraldehyde-3-phosphate dehydrogenase (Homo sapiens, UniProt P04406)
[30] = target: Alkaline phosphatase, placental type (Homo sapiens, UniProt P05187); assay: PLAP enzyme inhibitors, confirmation, biochemical, luminescence (AID 1512); format: functional
Alkaline phosphatase, placental type, sequence (P05187 whole entry): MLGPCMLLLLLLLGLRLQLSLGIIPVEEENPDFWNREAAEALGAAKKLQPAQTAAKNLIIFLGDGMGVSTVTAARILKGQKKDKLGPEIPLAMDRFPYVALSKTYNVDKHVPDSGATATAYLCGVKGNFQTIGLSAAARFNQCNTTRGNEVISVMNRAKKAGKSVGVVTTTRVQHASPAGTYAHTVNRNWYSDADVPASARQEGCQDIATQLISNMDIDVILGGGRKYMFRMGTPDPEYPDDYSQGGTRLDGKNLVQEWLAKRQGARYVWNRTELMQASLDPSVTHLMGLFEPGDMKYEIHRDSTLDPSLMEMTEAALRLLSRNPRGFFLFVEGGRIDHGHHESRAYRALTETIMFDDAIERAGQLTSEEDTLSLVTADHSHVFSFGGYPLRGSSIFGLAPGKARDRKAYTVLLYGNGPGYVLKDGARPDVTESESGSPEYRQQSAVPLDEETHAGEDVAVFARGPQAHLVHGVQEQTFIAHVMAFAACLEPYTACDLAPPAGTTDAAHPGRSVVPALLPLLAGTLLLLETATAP

Nucleotide-binding oligomerization domain-containing protein 2, sequence (Q9HC29 whole entry, the tested form may be a part): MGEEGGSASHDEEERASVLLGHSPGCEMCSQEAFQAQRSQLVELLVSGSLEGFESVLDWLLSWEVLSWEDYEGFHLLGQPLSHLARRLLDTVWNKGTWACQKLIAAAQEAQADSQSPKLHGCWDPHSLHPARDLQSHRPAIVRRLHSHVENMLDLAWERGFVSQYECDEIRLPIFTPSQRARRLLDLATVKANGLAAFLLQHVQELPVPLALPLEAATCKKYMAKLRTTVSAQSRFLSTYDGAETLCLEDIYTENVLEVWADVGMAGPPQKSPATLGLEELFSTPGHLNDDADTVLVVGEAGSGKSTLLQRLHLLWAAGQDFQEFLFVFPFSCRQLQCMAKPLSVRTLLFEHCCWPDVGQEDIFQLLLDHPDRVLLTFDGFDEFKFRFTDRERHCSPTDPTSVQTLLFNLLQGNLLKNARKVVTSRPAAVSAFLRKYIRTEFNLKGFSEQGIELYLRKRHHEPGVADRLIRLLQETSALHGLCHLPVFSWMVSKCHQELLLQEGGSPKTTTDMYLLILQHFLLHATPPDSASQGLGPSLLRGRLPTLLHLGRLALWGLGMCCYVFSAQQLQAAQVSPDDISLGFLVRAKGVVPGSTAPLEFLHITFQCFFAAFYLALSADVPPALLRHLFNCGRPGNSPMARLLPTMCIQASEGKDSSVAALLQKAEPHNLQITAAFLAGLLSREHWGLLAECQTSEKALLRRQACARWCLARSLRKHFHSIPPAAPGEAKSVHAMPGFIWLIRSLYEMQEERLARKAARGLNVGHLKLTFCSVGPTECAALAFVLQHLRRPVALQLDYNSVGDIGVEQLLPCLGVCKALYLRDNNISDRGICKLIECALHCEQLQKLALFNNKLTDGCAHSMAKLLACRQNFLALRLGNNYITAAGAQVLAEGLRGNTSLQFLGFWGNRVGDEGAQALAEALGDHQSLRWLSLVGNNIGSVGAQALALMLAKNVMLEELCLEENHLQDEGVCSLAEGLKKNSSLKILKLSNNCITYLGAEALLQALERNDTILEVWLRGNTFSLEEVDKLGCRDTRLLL
Glyceraldehyde-3-phosphate dehydrogenase, sequence (P04406 whole entry): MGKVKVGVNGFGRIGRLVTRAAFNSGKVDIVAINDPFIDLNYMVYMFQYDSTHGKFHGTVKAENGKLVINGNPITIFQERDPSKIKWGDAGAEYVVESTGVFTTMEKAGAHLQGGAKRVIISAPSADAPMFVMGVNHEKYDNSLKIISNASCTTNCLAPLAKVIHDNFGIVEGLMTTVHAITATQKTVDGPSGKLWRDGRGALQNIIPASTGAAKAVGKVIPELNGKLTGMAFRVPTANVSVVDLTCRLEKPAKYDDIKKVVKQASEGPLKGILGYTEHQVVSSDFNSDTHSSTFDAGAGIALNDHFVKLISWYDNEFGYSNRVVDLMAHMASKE
DNA damage-inducible transcript 3 protein, sequence (P35639 whole entry): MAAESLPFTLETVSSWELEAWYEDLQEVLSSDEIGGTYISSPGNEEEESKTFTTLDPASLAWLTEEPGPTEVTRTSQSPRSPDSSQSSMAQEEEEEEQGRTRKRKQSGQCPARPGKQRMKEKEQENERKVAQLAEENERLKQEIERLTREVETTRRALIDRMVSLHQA
X-box-binding protein 1, sequence (P17861 whole entry): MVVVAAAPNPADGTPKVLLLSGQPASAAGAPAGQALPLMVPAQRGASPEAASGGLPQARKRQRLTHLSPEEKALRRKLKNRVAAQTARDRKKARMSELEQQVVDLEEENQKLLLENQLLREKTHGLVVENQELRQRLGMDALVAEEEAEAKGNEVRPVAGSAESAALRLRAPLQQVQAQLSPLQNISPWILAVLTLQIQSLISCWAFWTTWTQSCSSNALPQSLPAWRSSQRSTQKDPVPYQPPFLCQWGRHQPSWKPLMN
FAD-linked sulfhydryl oxidase ALR, sequence (P55789 whole entry): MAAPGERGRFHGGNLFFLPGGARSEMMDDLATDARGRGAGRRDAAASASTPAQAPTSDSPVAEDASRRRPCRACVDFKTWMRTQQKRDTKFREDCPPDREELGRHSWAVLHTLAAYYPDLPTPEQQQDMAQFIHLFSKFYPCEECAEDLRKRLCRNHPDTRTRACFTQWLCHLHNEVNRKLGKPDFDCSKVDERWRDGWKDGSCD

CC1CCN(C(=O)Nc2ccc3nc(-c4ccco4)c(-c4ccco4)nc3c2)CC1
IC50 [1]: 0.84 µM (active)

O=C(CSC1c2ccccc2-c2ccccc21)N/N=C/c1ccccc1
Absolute IC50 (XBP1) (X-box-binding protein 1): 10 µM | Absolute IC50 (CHOP) [2]: 10 µM

CN(C)Cc1c(O)ccc2c1O/C(=C\C=C\c1ccccc1)C2=O
AC50 [3]: > 350 µM (inactive) | AC50 [4]: > 350 µM (inactive) | AC50 [5]: > 350 µM (inactive)

O=S1(=O)C=C(Sc2nnc(-c3ccccc3)o2)c2ccccc21
EC50 (BJ [6]): 7.16 µM (inconclusive) | CC50 [7]: 6.02 µM (active) | EC50 [8]: 2.38 µM (active) | EC50 [9]: > 20 µM (inactive) | IC50 (cells): 1.13 µM (active) | EC50 (BJ [10]): 1.48 µM (active) | EC50 [11]: 2.33 µM (active) | AC50 [12]: 1.7 µM (active) | IC50 (HEK293 [13]): 6.48 µM (inactive) | EC50 [14]: 0.941 µM (active) | CC50 [15]: 18.5 µM (active) | EC50 [16]: 4.19 µM (active) | AC50 [17]: 8.89 µM (active) | IC50 (HEK293 [18]): > 20 µM (inactive) | AC50 (INS1): 7.3 µM (active) | EC50 (BJ [19]): 2.8 µM (inconclusive) | AC50 [20]: 0.281 µM (active) | IC50 (HEK293 [21]): > 20 µM (inactive) | EC50 [22]: 2.8 µM (active) | CC50 [23]: 2.87 µM (active) | AC50 [24]: 4 µM (active) | IC50 (HEK293 [25]): 5.52 µM (active) | EC50 (HEK293 [26]): > 20 µM (inactive) | AC50 [27]: 2.9 µM (active)

CC(C)Cc1nc(N)nn1-c1ccccc1
IC50 [28]: > 100 µM (inactive) | IC50 [29]: > 100 µM (not active) | IC50 [30]: > 100 µM (inactive)

Reference: ChEMBL document CHEMBL1201862, “PubChem BioAssay data set” (2004)
